The source of these data is PMC11811597, “Phenomics‐Based Discovery of Novel Orthosteric Choline Kinase Inhibitors” (Angewandte Chemie (International Ed. in English), 2025).

The target of test [1] is T1, CHKA (Homo sapiens, UniProt P35790). As to the kind of experiment: PISA thermal profiling, intact HepG2 cells. It is filed as cell-based. More on the design: endogenous in cells; host or cells: intact HepG2 cells. The following applies: 30 µM; for effect_CETSA_Intact (PISA amplitude), CHKA: 60 min, n=3. Here is the method: To further corroborate our findings, we next performed the proteome integral solubility alteration (PISA) assay in HepG2 human hepatoma cells that express high levels of CHKA. Conceptually building on the cellular thermal shift assay (CETSA) with mass spectrometry based detection,[19, 20] PISA leverages compound‐mediated stabilisation of target proteins without the need of chemical modification in intact cells. […]
(§1) Experiments were performed as described earlier with few modifications. In short, 3 replicates of intact HepG2 cells were treated with 30 µM UNC0638, […] or corresponding volume of DMSO in medium-free experimental buffer for 60 min at 37 °C with end-over-end rotation. For lysates: Washed K562 cells were resuspended in medium-free experimental buffer and lysed by three freeze-thaw cycles. Lysate was centrifugated 20,000 × g for 20 min at 4 °C to remove cell debris. The cleared lysate was treated with 30 µM UNC0638, UNC0373 or corresponding volume of DMSO for 15 min at RT with end-over-end rotation. Each treated cell suspension or lysate was divided into 12 aliquots and subjected to a 12-step heat gradient from 44 °C to 64 °C. All the temperature points were pooled together to form […] individual samples. Soluble fraction was separated from precipitated proteins […]
(§2) by centrifugation at 30,000 × g for 20 min at 4 °C. The soluble fractions were collected to fresh tubes and further processed to be analysed with mass spectrometry. Sample handling, TMT labelling, LC-MS/MS analysis, protein identification and data analysis was performed as described earlier.[12] […]
Biosciences) was used for data analysis. The blood was obtained under an approved ethical review from the Regional Ethical Review Board in Stockholm, approval number 2015/2001-31/2. The donors gave their consent to participate after written and oral information.

Test [2] relates to choline metabolism in MCF7 cells. As to the kind of experiment: NMR choline metabolite analysis. The format is cell-based, human. The following applies: for extracellular choline uptake: dose-dependent. Here is the method:
NMR Choline Metabolite Analysis
Sample preparation for the quantification of metabolites by nuclear magnetic resonance (NMR) spectroscopy was performed as described previously.[13] Briefly, 0.3 mL of cell culture medium (conditioned medium) was collected from each sample and mixed with 2 volumes of pre-chilled methanol (< -70 °C), vortexed for 30 s and placed on dry ice for at least 30 min. Following centrifugation for 20 min at 18100 × g and 0 °C, the supernatant extract of culture medium was dried and stored until NMR analysis. The remaining culture medium from each sample was discarded and cells were washed once with PBS (37 °C), and quenched with liquid nitrogen. Polar metabolites were extracted with 1.4 mL of an ice-cold solution of 67.5:7.5:25 (v/v/v) of methanol/chloroform/water.
Samples were centrifuged at 18100 × g for 15 min at 0 °C and the supernatant consisted of intracellular polar metabolites was collected and dried under nitrogen gas stream. The remaining cell pellets were used for protein mass quantification using the Pierce™ BCA Protein Assay Kit (Thermo Scientific™).
Samples from both cell culture medium and cell extracts were reconstituted in 220 µL of 50 mM phosphate buffer (pH 7.4) solution in deuterated water containing 0.05 mM trimethylsilyl propionic-d4-sodium salt (TSP-d4, Cambridge Isotope Laboratories, Inc.) as internal standard used for NMR referencing and quantification. One NMR experiment (pulse sequence: noesygppr1d; Bruker Biospin) was collected for each sample in a 14.1 T (600 MHz for 1H) Bruker Avance Neo NMR. All recorded NMR spectra were imported in Chenomx NMR suite 9.0 (Chenomx NMR suite, v9.0) for the quantification of choline, phosphocholine sn-glycero-phosphocholine (GPC) and betaine. Quantitative data (nmoles or μM) were then normalized to the amount of total protein mass (mg) of each sample. […]

Test [3] has as its target T1, CHKA. In words: PISA thermal profiling, K562 cell lysates. It is filed as binding. More on the design: endogenous in cells. The following applies: 30 µM; for stabilisation of CHKA (PISA): K562 cell lysates; for effect_CETSA_Lysate (PISA amplitude), CHKA: K562 lysate, 15 min, n=3. Here is the method:
as §1, §2
(§3) Figure S3: Western blot of elution fractions after chemical pulldown with UNC0965 in MCF7 cell extract pre-incubated with indicated compounds (20 μM) or DMSO.
(§4) Figure S4: PISA thermal profiling results in K562 cell lysates. A) Volcano plots of UNC0638 and […]
(§5) Dashed lines represent amplitude > 0.05, < - 0.05 and log10(adjusted p-values) > 2 (two-sided two sample t-test, Benjamini-Hochberg corrected, n = 3).
(§6) 6,924 proteins were identified. B) UNC0737 stabilises CHKA stronger than UNC0638. […]

In test [4] the test system is primary human cell‐based tissue and disease models. In words: BioMAP Diversity PLUS panel. The following applies: for clustering of overall BioMAP responses across all biomarkers: 12 systems, Pearson's correlation >0.7; for IgG secretion, BioMAP PBMC panel: BioMAP B cell profiling. The text has this: Having confirmed that UNC0638 and UNC0737 are potent bona fide CHKA inhibitors, we next turned our attention to further investigate the role of CHKA in cellular signalling. While CHKA has been studied extensively in the context of malignant disease, there has been a growing acknowledgment of its relevance in immune metabolism.[9, 10] […] We profiled UNC0638 and UNC0737 alongside the orthogonal CHKA inhibitors V‐11‐0711 and ARIAD against the BioMAP Diversity PLUS panel (Figures S7).[24] This set comprises 148 distinct biomarkers across 12 systems, including panels for systemic immune responses. […] The decrease in IgG secretion was accompanied by a reduction in stimulation‐induced B cell maturation into CD27^+IgD^− memory CD19^+ B cells (Figure 4D). […]
consecutive concentrations change in the same direction relative to vehicle controls, are outside of the significance envelope, and have at least one concentration with an effect size > 20% (|log10ratio| > 0.1). Biomarker key activities are described as modulated if these activities increase in some systems, but decrease in others. Cytotoxicity is indicated on the profile plot by a thin black arrow above the x- […]
Cytotoxicity and antiproliferative arrows only require one concentration to meet the indicated threshold for profile annotation. […]

The target of test [5] is T2, RBBP8NL (Homo sapiens, UniProt Q8NC74).
T2 construct: endogenous in cells; host or cells: K562 cell lysate
In words: PISA thermal profiling, K562 cell lysates. The following applies: K562 lysate, 30 µM, 15 min, n=3. The format is binding. Here is the method:
as §1, §2, §3, §4, §5, §6

For test [6], the target named is T3, R3HCC1L (Homo sapiens, UniProt Q7Z5L2).
T3 construct: endogenous in cells; host or cells: K562 cell lysate
In words: PISA thermal profiling, K562 cell lysates. It is filed as binding. The following applies: K562 lysate, 30 µM, 15 min, n=3. As for the experimental part:
as §1, §2, §3, §4, §5, §6

For test [7], the target named is T4, HNRNPD (Homo sapiens, UniProt Q14103).
T4 construct: endogenous in cells; host or cells: K562 cell lysate
In words: PISA thermal profiling, K562 cell lysates. It is filed as binding. The following applies: K562 lysate, 30 µM, 15 min, n=3. Here is the method: as §1, §2, §3, §4, §5, §6

“Also recorded” adds a separate entry of the source. Like-named read-outs stand apart in the source and are kept apart here.

T1 sequence (P35790 whole entry): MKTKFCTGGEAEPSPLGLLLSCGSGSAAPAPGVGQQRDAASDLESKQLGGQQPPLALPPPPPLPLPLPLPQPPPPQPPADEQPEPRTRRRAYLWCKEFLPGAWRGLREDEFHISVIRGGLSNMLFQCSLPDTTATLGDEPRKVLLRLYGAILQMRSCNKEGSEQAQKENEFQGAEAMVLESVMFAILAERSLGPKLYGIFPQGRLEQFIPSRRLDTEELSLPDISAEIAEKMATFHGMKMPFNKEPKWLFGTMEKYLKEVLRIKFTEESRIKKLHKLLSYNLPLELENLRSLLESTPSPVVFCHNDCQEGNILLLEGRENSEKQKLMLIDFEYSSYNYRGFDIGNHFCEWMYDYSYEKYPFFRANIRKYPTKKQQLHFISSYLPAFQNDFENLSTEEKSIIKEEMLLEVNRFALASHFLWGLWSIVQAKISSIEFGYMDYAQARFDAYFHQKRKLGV
T2 sequence (Q8NC74 whole entry): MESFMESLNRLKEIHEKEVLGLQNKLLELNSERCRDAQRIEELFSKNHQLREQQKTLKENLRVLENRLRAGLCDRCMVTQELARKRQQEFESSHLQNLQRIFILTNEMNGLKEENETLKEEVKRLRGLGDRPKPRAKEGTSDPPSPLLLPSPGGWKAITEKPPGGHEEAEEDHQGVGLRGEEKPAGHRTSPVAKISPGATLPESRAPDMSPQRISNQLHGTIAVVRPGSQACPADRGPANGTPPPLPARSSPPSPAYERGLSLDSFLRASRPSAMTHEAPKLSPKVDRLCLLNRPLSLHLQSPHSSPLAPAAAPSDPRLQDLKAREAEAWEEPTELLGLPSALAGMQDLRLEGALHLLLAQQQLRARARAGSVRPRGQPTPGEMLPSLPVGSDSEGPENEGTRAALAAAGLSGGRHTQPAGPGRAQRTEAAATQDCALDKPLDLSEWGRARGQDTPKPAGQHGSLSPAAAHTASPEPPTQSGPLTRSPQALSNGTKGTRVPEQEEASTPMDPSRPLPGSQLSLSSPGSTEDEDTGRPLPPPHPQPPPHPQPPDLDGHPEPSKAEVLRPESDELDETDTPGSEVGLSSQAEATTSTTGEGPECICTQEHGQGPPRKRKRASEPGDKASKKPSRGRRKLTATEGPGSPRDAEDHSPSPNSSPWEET
T3 sequence (Q7Z5L2 1-184 isoform Q7Z5L2-3): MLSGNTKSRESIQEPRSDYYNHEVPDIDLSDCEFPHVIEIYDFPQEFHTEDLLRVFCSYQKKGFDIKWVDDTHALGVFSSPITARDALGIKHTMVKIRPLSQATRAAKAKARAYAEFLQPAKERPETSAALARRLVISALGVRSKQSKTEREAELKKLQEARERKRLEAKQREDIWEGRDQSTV
T4 sequence (Q14103 whole entry): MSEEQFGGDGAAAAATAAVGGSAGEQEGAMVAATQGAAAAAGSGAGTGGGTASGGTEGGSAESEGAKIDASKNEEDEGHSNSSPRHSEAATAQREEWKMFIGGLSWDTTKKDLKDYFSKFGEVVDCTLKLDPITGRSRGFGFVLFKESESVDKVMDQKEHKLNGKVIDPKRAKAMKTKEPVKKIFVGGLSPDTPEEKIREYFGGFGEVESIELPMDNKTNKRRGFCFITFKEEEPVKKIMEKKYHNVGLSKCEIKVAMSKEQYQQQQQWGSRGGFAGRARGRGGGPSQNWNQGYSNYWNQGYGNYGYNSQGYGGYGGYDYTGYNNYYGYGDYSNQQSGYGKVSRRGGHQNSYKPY

Consider `COc1cc2c(NC3CCN(C(C)C)CC3)nc(C3CCCCC3)nc2cc1OCCCN1CCCC1` [UNC0638], for which, in test [1], the “stabilisation of CHKA (PISA)” value is “significant stabilisation of CHKA” and the “effect_CETSA_Intact (PISA amplitude), CHKA” value is listed as 0.57. In test [2], the betaine entry was “did not observe changes”, the intracellular choline levels result is reported as “not significantly affected”, the “phosphocholine (pCho) formation/levels relative to control” value is recorded as “reduction of pCho formation; also recorded: significantly reduced” and the “sn‐glycerophosphocholine (GPC)” value is reported as “not significantly affected”. Besides, the extracellular choline uptake result in test [2] was “decrease in extracellular choline uptake”. For the same molecule, in test [3], the “stabilisation of CHKA (PISA)” value is “selective stabilisation of CHKA” and the “effect_CETSA_Lysate (PISA amplitude), CHKA” value stood at 0.202. In test [4], the “clustering of overall BioMAP responses across all biomarkers” value is “clustered together with the known CHKA inhibitors” and the “IgG secretion, BioMAP PBMC panel” value is reported as “significant effects on IgG secretion”. In test [5], the “effect_CETSA_Lysate (PISA amplitude), RBBP8NL” value is given as 0.217. The “effect_CETSA_Lysate (PISA amplitude), R3HCC1L” value in test [6] turned out to be 0.239. In test [7], the “effect_CETSA_Lysate (PISA amplitude), HNRNPD” value turned out to be 0.387.
Take `COc1cc2c(N(C)C3CCN(C(C)C)CC3)nc(C3CCCCC3)nc2cc1OCCCN1CCCC1` [UNC0737]: in test [1], the “stabilisation of CHKA (PISA)” value is on record as “significant stabilisation of CHKA” and the “effect_CETSA_Intact (PISA amplitude), CHKA” value is reported as 0.619. Besides, in test [2], the betaine entry was “did not observe changes”, the intracellular choline levels entry is “not significantly affected”, the “phosphocholine (pCho) formation/levels relative to control” value is “reduction of pCho formation” and the “sn‐glycerophosphocholine (GPC)” value is recorded as “not significantly affected”. Moreover, the extracellular choline uptake result in test [2] is “decrease in extracellular choline uptake”. In addition, in test [2] (listed as UN0737), the “phosphocholine (pCho) formation/levels relative to control” value is “significantly reduced”. Moreover, in test [3], the “stabilisation of CHKA (PISA)” value is given as “selective stabilisation of CHKA” and the “effect_CETSA_Lysate (PISA amplitude), CHKA” value came out at 0.504. In addition, in test [4], the “clustering of overall BioMAP responses across all biomarkers” value was “clustered together with the known CHKA inhibitors” and the “IgG secretion, BioMAP PBMC panel” value is recorded as “significant effects on IgG secretion”. In addition, the “effect_CETSA_Lysate (PISA amplitude), RBBP8NL” value in test [5] was determined as 0.393. Moreover, in test [6], the “effect_CETSA_Lysate (PISA amplitude), R3HCC1L” value was 0.415. Besides, the “effect_CETSA_Lysate (PISA amplitude), HNRNPD” value in test [7] was determined as 0.605.
